Experiments:
Format in all cases: in vivo
[1] = test system: Italian ryegrass (Lolium multiflorum); experiment: Test A preemergence, visual plant response rating; details: for Ryegrass, Italian plant response rating: 125 g ai/ha, preemergence, 0 to 100 scale, 0 no effect, 100 complete control; for Ryegrass, Italian plant response rating (0 to 100 scale): 500 g ai/ha Preemergence, approx. 10 days
Method in brief: (§1)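 Greenhouse evaluation, approx. 10 days post-spray. Soil: loam + sand. Postemergence stage: 1–2 leaves, height 2–10 cm. Vehicle: non-phytotoxic solvent blend with surfactant. Score: visual injury on a 0 (no effect) to 100 (complete control) scale.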

[2] = test system: barnyardgrass (Echinochloa crus-galli); experiment: Test A preemergence, visual plant response rating; details: for Barnyardgrass plant response rating: 125 g ai/ha, preemergence, 0 to 100 scale, 0 no effect, 100 complete control; for Barnyardgrass plant response rating (0 to 100 scale): 500 g ai/ha Preemergence, approx. 10 days
Method in brief: as §1

[3] = test system: foxtail, giant (giant foxtail, Setaria faberii); experiment: Test A preemergence, visual plant response rating; details: for Foxtail, Giant plant response rating: 125 g ai/ha, preemergence, 0 to 100 scale, 0 no effect, 100 complete control; for Foxtail, Giant plant response rating (0 to 100 scale): 500 g ai/ha Preemergence, approx. 10 days
Method in brief: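 Ratings use a 0–100 visual scale (100 = complete control) against untreated controls, scored about 10 days after greenhouse treatment. Test chemicals were formulated in surfactant-containing non-phytotoxic solvent and applied either as soil spray after planting (preemergence) or onto one- to two-leaf, 2–10 cm plants (postemergence).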

[4] = test system: kochia (Kochia scoparia); experiment: Test A preemergence, visual plant response rating; details: for Kochia plant response rating: 125 g ai/ha, preemergence, 0 to 100 scale, 0 no effect, 100 complete control; for Kochia plant response rating (0 to 100 scale): 500 g ai/ha Preemergence, approx. 10 days
Method in brief: as §1

[5] = test system: pigweed (Amaranthus retroflexus); experiment: Test A preemergence, visual plant response rating; details: for Pigweed plant response rating: 125 g ai/ha, preemergence, 0 to 100 scale, 0 no effect, 100 complete control; for Pigweed plant response rating (0 to 100 scale): 500 g ai/ha Preemergence, approx. 10 days
Method in brief: as §1

[6] = test system: ragweed (common ragweed, Ambrosia elatior); experiment: Test A preemergence, visual plant response rating; details: for Ragweed plant response rating: 125 g ai/ha, preemergence, 0 to 100 scale, 0 no effect, 100 complete control; for Ragweed plant response rating (0 to 100 scale): 500 g ai/ha Preemergence, approx. 10 days
Method in brief: as §1

[7] = test system: Italian ryegrass (Lolium multiflorum); experiment: Test A postemergence, visual plant response rating; details: for Ryegrass, Italian plant response rating (0 to 100 scale): 500 g ai/ha, postemergence, 0 is no effect, 100 is complete control; for Ryegrass, Italian plant response rating: Postemergence, 125 g ai/ha, 0 to 100 scale (0 no effect, 100 complete control)
Method in brief: as §1

[8] = test system: barnyardgrass (Echinochloa crus-galli); experiment: Test A postemergence, visual plant response rating; details: for Barnyardgrass plant response rating (0 to 100 scale): 500 g ai/ha, postemergence, 0 is no effect, 100 is complete control; for Barnyardgrass plant response rating: Postemergence, 125 g ai/ha, 0 to 100 scale (0 no effect, 100 complete control)
Method in brief: as §1

[9] = test system: blackgrass (Alopecurus myosuroides); experiment: Test A postemergence, visual plant response rating; details: for Blackgrass plant response rating (0 to 100 scale): 500 g ai/ha, postemergence, 0 is no effect, 100 is complete control; for Blackgrass plant response rating: Postemergence, 125 g ai/ha, 0 to 100 scale (0 no effect, 100 complete control)
Method in brief: as §1

[10] = test system: corn (Zea mays); experiment: Test A postemergence, visual plant response rating; details: for Corn plant response rating (0 to 100 scale): 500 g ai/ha, postemergence, 0 is no effect, 100 is complete control; for Corn plant response rating: Postemergence, 125 g ai/ha, 0 to 100 scale (0 no effect, 100 complete control)
Method in brief: as §1

[11] = test system: foxtail, giant (giant foxtail, Setaria faberii); experiment: Test A postemergence, visual plant response rating; details: for Foxtail, Giant plant response rating (0 to 100 scale): 500 g ai/ha, postemergence, 0 is no effect, 100 is complete control; for Foxtail, Giant plant response rating: Postemergence, 125 g ai/ha, 0 to 100 scale (0 no effect, 100 complete control)
Method in brief: as §1

[12] = test system: galium (catchweed bedstraw, Galium aparine); experiment: Test A postemergence, visual plant response rating; details: for Galium plant response rating (0 to 100 scale): 500 g ai/ha, postemergence, 0 is no effect, 100 is complete control; for Galium plant response rating: Postemergence, 125 g ai/ha, 0 to 100 scale (0 no effect, 100 complete control)
Method in brief: as §1

[13] = test system: kochia (Kochia scoparia); experiment: Test A postemergence, visual plant response rating; details: for Kochia plant response rating (0 to 100 scale): 500 g ai/ha, postemergence, 0 is no effect, 100 is complete control; for Kochia plant response rating: Postemergence, 125 g ai/ha, 0 to 100 scale (0 no effect, 100 complete control)
Method in brief: as §1

[14] = test system: pigweed (Amaranthus retroflexus); experiment: Test A postemergence, visual plant response rating; details: for Pigweed plant response rating (0 to 100 scale): 500 g ai/ha, postemergence, 0 is no effect, 100 is complete control; for Pigweed plant response rating: Postemergence, 125 g ai/ha, 0 to 100 scale (0 no effect, 100 complete control)
Method in brief: as §1

[15] = test system: ragweed (common ragweed, Ambrosia elatior); experiment: Test A postemergence, visual plant response rating; details: for Ragweed plant response rating (0 to 100 scale): 500 g ai/ha, postemergence, 0 is no effect, 100 is complete control; for Ragweed plant response rating: Postemergence, 125 g ai/ha, 0 to 100 scale (0 no effect, 100 complete control)
Method in brief: as §1

[16] = test system: wheat (Triticum aestivum); experiment: Test A postemergence, visual plant response rating; details: for Wheat plant response rating (0 to 100 scale): 500 g ai/ha, postemergence, 0 is no effect, 100 is complete control
Method in brief: as §1

[17] = test system: barnyardgrass (Echinochloa crus-galli); experiment: Test B flooded paddy test, visual plant response rating; details: 250 g ai/ha, Flood, applied to paddy water, 2-leaf stage, evaluated after 13 to 15 days
Method in brief: (§2)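 Test pots are flooded 3 cm above the soil at treatment, and the test substance is introduced into this standing water. After keeping the flood level and growing plants, treated at the 2-leaf stage, for 13 to 15 days under glass, injury is assessed visually versus controls.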

[18] = test system: ducksalad (Heteranhera limosa); experiment: as above; details: 250 g ai/ha, Flood, applied to paddy water, 2-leaf stage, evaluated after 13 to 15 days
Method in brief: as §2

[19] = test system: rice (Oryza sativa); experiment: as above; details: 250 g ai/ha, Flood, applied to paddy water, 2-leaf stage, evaluated after 13 to 15 days
Method in brief: as §2

[20] = test system: sedge, umbrella (small-flower umbrella sedge, Cyperus difformis); experiment: as above; details: 250 g ai/ha, Flood, applied to paddy water, 2-leaf stage, evaluated after 13 to 15 days
Method in brief: as §2

| SMILES | Ryegrass, Italian plant response rating [1] | Ryegrass, Italian plant response rating (0 to 100 scale) [1] | Barnyardgrass plant response rating [2] | Barnyardgrass plant response rating (0 to 100 scale) [2] | Foxtail, Giant plant response rating [3] | Foxtail, Giant plant response rating (0 to 100 scale) [3] | Kochia plant response rating [4] | Kochia plant response rating (0 to 100 scale) [4] | Pigweed plant response rating [5] | Pigweed plant response rating (0 to 100 scale) [5] | Ragweed plant response rating [6] | Ragweed plant response rating (0 to 100 scale) [6] | Ryegrass, Italian plant response rating (0 to 100 scale) [7] | Ryegrass, Italian plant response rating [7] | Barnyardgrass plant response rating (0 to 100 scale) [8] | Barnyardgrass plant response rating [8] | Blackgrass plant response rating (0 to 100 scale) [9] | Blackgrass plant response rating [9] | Corn plant response rating (0 to 100 scale) [10] | Corn plant response rating [10] | also measured |
| --- | --- | --- | --- | --- | --- | --- | --- | --- | --- | --- | --- | --- | --- | --- | --- | --- | --- | --- | --- | --- | --- |
| CON=C(c1c(O)c(C)nn(C)c1=O)c1cccc2ccoc12 [Compound 60] | 0 | 40 | 0 | 0 | 10 | 10 | 0 | 0 | 0 | 30 | 0 | 30 | 20 | 10 | 0 | 0 | 10 | 0 | 0 | 0 | Foxtail, Giant plant response rating (0 to 100 scale) [11]: 30; Foxtail, Giant plant response rating [11]: 0; Galium plant response rating (0 to 100 scale) [12]: 70; Galium plant response rating [12]: 60; Kochia plant response rating (0 to 100 scale) [13]: 50; Kochia plant response rating [13]: 30; Pigweed plant response rating (0 to 100 scale) [14]: 90; Pigweed plant response rating [14]: 50; Ragweed plant response rating (0 to 100 scale) [15]: 40; Ragweed plant response rating [15]: 20; Wheat plant response rating (0 to 100 scale) [16]: 40; Plant response rating, Barnyardgrass (0 to 100 scale, 0 is no effect, 100 is complete control) [17]: 0; Plant response rating, Ducksalad (0 to 100 scale, 0 is no effect, 100 is complete control) [18]: 0; Plant response rating, Rice (0 to 100 scale, 0 is no effect, 100 is complete control) [19]: 0; Plant response rating, Sedge, Umbrella (0 to 100 scale, 0 is no effect, 100 is complete control) [20]: 0 |
| CO/N=C(\c1c(O)c(Cl)nn(C)c1=O)c1cccc2ccccc12 [Compound 129, 6-chloro-5-hydroxy-4-[(Z)-(methoxyimino)-1-naphthalenylmethyl]-2-methyl-3(2H)-pyridazinone] | 0 | 0 | 60 | 80 | 60 | 80 | 10 | 50 | 10 | 90 | 70 | 100 | 10 | 0 | 50 | 30 | 70 | 30 | 0 | 0 | Foxtail, Giant plant response rating (0 to 100 scale) [11]: 60; Foxtail, Giant plant response rating [11]: 40; Galium plant response rating (0 to 100 scale) [12]: 90; Galium plant response rating [12]: 80; Kochia plant response rating (0 to 100 scale) [13]: 80; Kochia plant response rating [13]: 70; Pigweed plant response rating (0 to 100 scale) [14]: 70; Pigweed plant response rating [14]: 40; Ragweed plant response rating (0 to 100 scale) [15]: 100; Ragweed plant response rating [15]: 90; Wheat plant response rating (0 to 100 scale) [16]: 0; Wheat plant response rating ([16]; Postemergence, 125 g ai/ha, 0 to 100 scale (0 no effect, 100 complete control)): 0; Plant response rating, Barnyardgrass (0 to 100 scale, 0 is no effect, 100 is complete control) [17]: 0; Plant response rating, Ducksalad (0 to 100 scale, 0 is no effect, 100 is complete control) [18]: 0; Plant response rating, Rice (0 to 100 scale, 0 is no effect, 100 is complete control) [19]: 0; Plant response rating, Sedge, Umbrella (0 to 100 scale, 0 is no effect, 100 is complete control) [20]: 0 |
